One may read the IC50 as the point on the concentration scale where inhibition reaches its midpoint. In general, Ki refers to a measure of affinity in units of concentration, obtained from inhibition or displacement. The bioavailability is the share of a dose that reaches the circulation, judged against a reference dose that is usually intravenous. As usually defined, the Cmax is the highest concentration seen after dosing. By clearance is commonly meant the rate of elimination divided by the concentration. Read a low clearance as inefficient removal. What is called half-life is how long it takes for the measured level to halve. One may read the ΔTm as the shift of the melting midpoint relative to a reference.

For series [1], the target named is T1, Nuclear receptor ROR-gamma (Homo sapiens, UniProt P51449).
T1 sequence (P51449 whole entry): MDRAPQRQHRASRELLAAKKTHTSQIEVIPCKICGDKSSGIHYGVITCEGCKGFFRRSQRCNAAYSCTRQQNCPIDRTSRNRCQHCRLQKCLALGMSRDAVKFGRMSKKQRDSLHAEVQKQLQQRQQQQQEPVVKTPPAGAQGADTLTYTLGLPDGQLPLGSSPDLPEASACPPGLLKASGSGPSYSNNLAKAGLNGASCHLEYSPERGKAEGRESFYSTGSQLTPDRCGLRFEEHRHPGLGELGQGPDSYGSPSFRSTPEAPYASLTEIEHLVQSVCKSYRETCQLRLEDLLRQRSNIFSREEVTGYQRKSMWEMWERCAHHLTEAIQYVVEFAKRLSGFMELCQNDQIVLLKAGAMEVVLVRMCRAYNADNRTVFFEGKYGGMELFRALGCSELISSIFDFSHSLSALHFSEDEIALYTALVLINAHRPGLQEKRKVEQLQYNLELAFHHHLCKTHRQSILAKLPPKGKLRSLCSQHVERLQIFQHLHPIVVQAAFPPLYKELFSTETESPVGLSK
Nature of the series: Inhibition of APC-labeled RORgammat receptor ligand binding domain (unknown origin) after 1 hr by FRET assay.

Series [2] relates to Mus musculus. Nature of the series: Dose normalized AUC (0 to infinity) in C57BL/6 mouse at 10 mg/kg, po. Type of series: ADME, organism-based. Details: dose 10 mg/kg, route oral. Particulars: in vivo.
Series [3] addresses T1, Nuclear receptor ROR-gamma. Nature of the series: Displacement of 25-[26,27-3H]hydroxycholesterol from RORgammat receptor ligand binding domain (unknown origin) after 60 mins.
Series [4] is described as follows: Oral biavailability in C57BL/6 mouse at 10 mg/kg. Particulars: in vivo. The series is classed as ADME, organism-based. Details: dose 10 mg/kg.
Series [5] is described as follows: Volume of distribution at steady state in C57BL/6 mouse at 1 mg/kg, iv. Type of series: ADME, organism-based. Details: dose 1 mg/kg, route intravenous. Particulars: in vivo, read-out: Vdss.
The nature of series [6]: Cmax in C57BL/6 mouse blood at 10 mg/kg, po. The series is classed as ADME, organism-based. More on the design: dose 10 mg/kg, route oral.
In series [7] the target is T2, Nuclear receptor ROR-gamma (Mus musculus, UniProt P51450).
T2 sequence (P51450 whole entry): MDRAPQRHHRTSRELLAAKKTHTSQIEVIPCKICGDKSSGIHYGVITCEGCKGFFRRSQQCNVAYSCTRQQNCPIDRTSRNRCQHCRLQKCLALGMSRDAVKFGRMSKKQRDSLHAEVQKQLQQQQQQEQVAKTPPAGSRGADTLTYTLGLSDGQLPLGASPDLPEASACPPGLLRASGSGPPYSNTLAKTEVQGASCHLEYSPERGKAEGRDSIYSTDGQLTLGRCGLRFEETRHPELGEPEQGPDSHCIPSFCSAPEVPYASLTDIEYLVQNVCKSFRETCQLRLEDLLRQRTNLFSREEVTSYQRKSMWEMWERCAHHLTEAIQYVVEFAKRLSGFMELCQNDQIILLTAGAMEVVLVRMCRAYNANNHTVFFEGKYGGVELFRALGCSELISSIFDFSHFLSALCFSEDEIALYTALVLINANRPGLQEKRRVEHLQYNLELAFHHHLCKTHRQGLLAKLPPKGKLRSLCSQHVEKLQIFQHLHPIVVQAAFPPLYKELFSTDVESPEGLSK
Nature of the series: Inhibition of RORgammat receptor ligand binding domain in mouse spleen CD4+ T cells assessed as inhibition of IL-17 production after 3 days by ELISA. Type of series: cell-based, T-cell.

The nature of series [8]: Clearance in C57BL/6 mouse at 1 mg/kg, iv. Type of series: ADME, organism-based. Details: dose 1 mg/kg, route intravenous. Particulars: in vivo.
Series [9] has as its system Mus musculus. Nature of the series: Dose normalized AUC (0 to infinity) in C57BL/6 mouse at 1 mg/kg, iv. The series is classed as ADME, organism-based. Details: dose 1 mg/kg, route intravenous. The settings on record: in vivo.
Series [10] in a line: Half life in C57BL/6 mouse at 1 mg/kg, iv. Type of series: ADME, organism-based. More on the design: dose 1 mg/kg, route intravenous. The settings on record: in vivo.
In series [11] the target is T3, Nuclear receptor ROR-gamma (Homo sapiens) (UniProt P51449).
T3 sequence (whole entry): T1 sequence (P51449 whole entry)
Description: Binding affinity to RORgammat receptor ligand binding domain (unknown origin) assessed as change in melting temperature at 50 uM by circular dichroism spectrophotometric analysis

The structures appear in SMILES notation.

For `CCS(=O)(=O)c1ccc(CC(=O)Nc2nc(-c3cccc(Cl)c3)c(C(=O)c3ccccc3Cl)s2)cc1`, the IC50 in [1] was 15.8 nM; in series [7], 200 nM. Besides, the AUC/dose with Mus musculus [2] worked out at 448 ng·h/mL/mg/kg; in the series on Mus musculus [9], 937 ng·h/mL/mg/kg. In addition, affinity in [3] was put at a Ki of 39.8 nM. Also, the bioavailability in [4] worked out at 48%. In series [5], the Vd was found to be 1.24 L/kg. This compound also returned a Cmax in series [6] of 1550 ng/mL. Also, the clearance in [8] amounted to 17.8 mL/min/kg. The compound also gave a half-life in series [10] of 1 h. In series [11], the ΔTm was determined as 11.3 °C.

Values taken from ChEMBL document CHEMBL3102747, “Discovery of novel N-(5-(arylcarbonyl)thiazol-2-yl)amides and N-(5-(arylcarbonyl)thiophen-2-yl)amides as potent RORγt inhibitors” (Bioorg Med Chem, 2014).
